From patent publication US20170349860A1, “ENZYME STABILIZERS” (Henkel AG & Co. KGaA, priority 2014, published 2017)

Test system: protease
Assay: Storage stability of protease in detergent formulation: residual proteolytic activity by AAPF-pNA assay
Format: biochemical
Settings: 1% protease, 1% (w/w) candidate compound in detergent formulation; stored 8 weeks at 30° C.; AAPF-pNA substrate, 25° C., pH 8.6, 410 nm
Method: The storage stability of protease-containing detergents and cleaning agents was tested for use as enzyme stabilizers in the presence of candidate compounds. For this purpose, the candidate compounds were formulated in the presence of up to 1% (w/w) 1,2-propanediol in a detergent or cleaning agent formulation (see Table 2). The protease (1% PUR) was then added to the formulation, and the formulation stored for 8 weeks at 30° C.
In parallel batches, the proteolytic activity of 1% protease was determined in 4% PG (1,2-propanediol), 85% matrix (see Table 1), then, each following incubation with 1% of the candidate compound (specified in w/w; QS 100% with water) determined in half of the batches in the formulation as indicated in Table 1 by the release of the chromophore para-nitroaniline from the succinyl-alanine-alanine-proline-phenylalanine para-nitroanilide substrate (AAPF-pNA; Bachem L-1400). The release of the pNA caused an increase in the absorbance at 410 nm, the progress over time of which is a measure of enzymatic activity. […]
For evaluation, the initial values for the proteolytic activity of the agent in question were compared to the values determined after storage. […] The stabilizing effect of each tested compound is thus measured as a relative percentage increase in the residual protease activity.

SMILES: O=C(O)CCCCCNc1nc(NCCCCCC(=O)O)nc(NCCCCCC(=O)O)n1 [2,4,6-Tri-(6-aminocaproic acid)-1,3,5-triazine]
- Relative residual activity after incubation with KV: 136%
